Reference: PMC11828983 (Scientific Reports, 2025)

Legend:
α3 GlyR (homomeric) = target: T1, α3 GlyR (homomeric) (Rattus norvegicus, UniProt P24524); test: whole-cell patch clamp, direct activation; type: cell-based; conditions: no glycine added; agonist; residual glycine not excluded
T1 sequence (P24524 34-464): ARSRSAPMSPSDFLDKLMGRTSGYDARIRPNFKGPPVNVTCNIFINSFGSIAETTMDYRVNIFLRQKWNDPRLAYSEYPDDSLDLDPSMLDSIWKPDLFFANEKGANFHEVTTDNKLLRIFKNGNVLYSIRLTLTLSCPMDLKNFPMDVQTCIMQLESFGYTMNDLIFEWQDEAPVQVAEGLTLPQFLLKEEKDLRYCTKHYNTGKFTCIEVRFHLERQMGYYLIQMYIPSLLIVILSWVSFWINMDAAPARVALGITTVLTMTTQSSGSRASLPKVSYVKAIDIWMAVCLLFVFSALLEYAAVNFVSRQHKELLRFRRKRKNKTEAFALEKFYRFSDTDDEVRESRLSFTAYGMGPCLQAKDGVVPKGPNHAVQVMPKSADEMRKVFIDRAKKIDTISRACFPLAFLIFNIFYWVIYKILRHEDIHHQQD

α1 GlyR (homomeric) = target: T2, α1 GlyR (homomeric) (Rattus norvegicus, UniProt Q546L7); test: whole-cell patch clamp, direct activation; type: cell-based; conditions: no glycine added; agonist; residual glycine not excluded
T2 sequence (Q546L7 29-449): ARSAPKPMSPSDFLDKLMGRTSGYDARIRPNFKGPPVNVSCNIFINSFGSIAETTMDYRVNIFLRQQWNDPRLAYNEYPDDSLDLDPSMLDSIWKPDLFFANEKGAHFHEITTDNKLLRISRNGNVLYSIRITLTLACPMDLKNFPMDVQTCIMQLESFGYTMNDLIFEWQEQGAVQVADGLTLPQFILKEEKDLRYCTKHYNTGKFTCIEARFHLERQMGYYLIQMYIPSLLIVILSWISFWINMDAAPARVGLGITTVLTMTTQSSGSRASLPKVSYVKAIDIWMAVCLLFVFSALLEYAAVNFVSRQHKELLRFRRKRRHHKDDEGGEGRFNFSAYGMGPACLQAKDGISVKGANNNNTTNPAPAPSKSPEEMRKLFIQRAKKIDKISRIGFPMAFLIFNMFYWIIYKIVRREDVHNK

% of maximal glycine current at 100 μM (α3 GlyR (homomeric)): ~ 15%
% of maximal glycine current at 100 μM (α1 GlyR (homomeric)): > 20%
Substance: AM-1488
